The text below walks through data of patent US20240092758A1, “IMIDAZOLO INDAZOLE COMPOUNDS AS JAK INHIBITORS” (Theravance Biopharma R&D IP, LLC, priority 2021, published 2024).

The target in one assay is JAK1 (Homo sapiens (Human), UniProt P23458). The assay can be described thus: Biochemical JAK kinase assay (LanthaScreen), JAK1. The following applies: for Ki: read-out: JAK1 pKi (converted). The method, boiled down: (§1)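 LanthaScreen format: phospho-STAT1 (pTyr701) detected with 2 nM Tb antibody after 10 mM EDTA quench. Kinase step used Km-level ATP and 200 nM STAT1 peptide, 1 h at ambient after 1 h pre-incubation. Inhibition fitted to IC50, reported as pKi.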
For orientation: Time-resolved FRET reads energy transfer from a long-lived donor to a nearby acceptor.

The next assay deals with JAK2 (Homo sapiens (Human), UniProt O60674). The assay can be described thus: Biochemical JAK kinase assay (LanthaScreen), JAK2. The following applies: for Ki: read-out: JAK2 pKi (converted). The method in brief:
as §1

In assay [1] the test system is IL-13 induced STAT6 phosphorylation in BEAS-2B human lung epithelial cells. The assay can be described thus: Cellular JAKI potency assay (BEAS-2B). In kind it is cell-based. The following applies: Homo sapiens, BEAS-2B, BEAS-2B cells, read-out: BEAS2B pIC50 (converted). The method, boiled down:
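BEAS-2B cells were preincubated with compound (0.1% DMSO) in HBSS/HEPES/BSA for 1 h at 37 °C, then stimulated with IL-13 (80 ng/mL before addition) for 30 min. After lysis, pSTAT6 (Tyr641) was quantified by AlphaLISA SureFire; IC50 from a 4-parameter fit of percent inhibition, reported as pIC50.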

Chain of JAK1 (P23458 whole entry): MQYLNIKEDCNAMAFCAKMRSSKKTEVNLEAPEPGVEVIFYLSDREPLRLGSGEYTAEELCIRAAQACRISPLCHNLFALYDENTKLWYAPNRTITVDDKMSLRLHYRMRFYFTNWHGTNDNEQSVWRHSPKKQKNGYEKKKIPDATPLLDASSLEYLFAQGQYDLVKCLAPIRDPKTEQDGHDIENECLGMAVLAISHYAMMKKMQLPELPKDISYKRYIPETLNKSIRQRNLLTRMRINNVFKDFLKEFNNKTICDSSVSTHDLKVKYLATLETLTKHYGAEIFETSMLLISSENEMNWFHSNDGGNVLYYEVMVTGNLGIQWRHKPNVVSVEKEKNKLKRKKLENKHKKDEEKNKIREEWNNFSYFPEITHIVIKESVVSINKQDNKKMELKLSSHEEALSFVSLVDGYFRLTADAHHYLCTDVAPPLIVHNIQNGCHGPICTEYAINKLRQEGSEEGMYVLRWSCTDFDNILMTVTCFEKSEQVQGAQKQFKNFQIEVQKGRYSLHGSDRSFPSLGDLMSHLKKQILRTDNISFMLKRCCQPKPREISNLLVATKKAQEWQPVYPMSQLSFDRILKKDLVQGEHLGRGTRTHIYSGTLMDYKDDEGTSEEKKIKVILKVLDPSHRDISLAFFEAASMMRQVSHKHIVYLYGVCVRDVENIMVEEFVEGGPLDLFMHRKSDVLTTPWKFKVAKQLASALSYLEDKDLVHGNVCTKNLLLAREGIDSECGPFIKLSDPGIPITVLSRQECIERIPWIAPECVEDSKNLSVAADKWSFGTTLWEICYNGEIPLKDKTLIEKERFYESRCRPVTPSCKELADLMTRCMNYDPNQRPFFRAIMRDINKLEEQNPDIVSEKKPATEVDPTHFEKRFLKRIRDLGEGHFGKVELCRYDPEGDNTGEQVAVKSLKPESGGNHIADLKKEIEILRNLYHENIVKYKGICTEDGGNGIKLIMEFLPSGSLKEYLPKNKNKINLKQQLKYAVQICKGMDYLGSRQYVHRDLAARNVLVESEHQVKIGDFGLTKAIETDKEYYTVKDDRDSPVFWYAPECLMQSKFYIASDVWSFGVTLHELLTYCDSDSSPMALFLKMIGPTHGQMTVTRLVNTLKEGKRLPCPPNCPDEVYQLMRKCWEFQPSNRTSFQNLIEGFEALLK
Chain of JAK2 (O60674 whole entry): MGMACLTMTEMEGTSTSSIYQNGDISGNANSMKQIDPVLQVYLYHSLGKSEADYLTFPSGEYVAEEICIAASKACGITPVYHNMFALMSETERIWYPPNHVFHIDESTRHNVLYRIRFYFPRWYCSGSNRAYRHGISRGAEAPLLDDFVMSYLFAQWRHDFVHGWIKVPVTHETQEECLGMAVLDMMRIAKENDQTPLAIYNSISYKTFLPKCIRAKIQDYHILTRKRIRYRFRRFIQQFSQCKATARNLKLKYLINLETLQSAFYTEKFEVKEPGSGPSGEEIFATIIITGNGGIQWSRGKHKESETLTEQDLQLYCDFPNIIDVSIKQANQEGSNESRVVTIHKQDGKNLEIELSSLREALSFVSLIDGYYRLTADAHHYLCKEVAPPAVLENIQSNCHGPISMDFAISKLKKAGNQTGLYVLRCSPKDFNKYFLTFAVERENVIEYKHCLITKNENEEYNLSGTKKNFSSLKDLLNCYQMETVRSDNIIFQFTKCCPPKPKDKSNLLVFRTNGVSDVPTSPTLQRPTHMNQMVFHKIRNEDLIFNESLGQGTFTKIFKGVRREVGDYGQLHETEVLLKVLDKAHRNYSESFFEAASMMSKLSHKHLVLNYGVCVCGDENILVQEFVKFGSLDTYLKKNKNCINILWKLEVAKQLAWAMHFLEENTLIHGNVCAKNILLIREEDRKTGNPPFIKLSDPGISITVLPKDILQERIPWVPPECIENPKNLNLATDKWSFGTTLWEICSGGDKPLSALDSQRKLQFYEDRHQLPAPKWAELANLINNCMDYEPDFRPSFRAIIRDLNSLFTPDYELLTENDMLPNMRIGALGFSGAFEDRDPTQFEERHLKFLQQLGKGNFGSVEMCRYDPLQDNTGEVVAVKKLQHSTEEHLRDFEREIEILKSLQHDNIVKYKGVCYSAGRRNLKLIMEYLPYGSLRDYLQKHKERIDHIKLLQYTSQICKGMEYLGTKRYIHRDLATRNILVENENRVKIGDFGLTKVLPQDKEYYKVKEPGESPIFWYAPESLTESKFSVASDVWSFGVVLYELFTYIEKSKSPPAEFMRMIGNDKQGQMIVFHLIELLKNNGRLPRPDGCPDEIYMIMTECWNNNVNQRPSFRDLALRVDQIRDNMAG

With `CCc1cc(O)ccc1-c1ccc2c(-c3nc(C4=CCN(C(=O)COCCNCCOC)C4)c[nH]3)n[nH]c2c1F` [Example 389], the Ki on JAK1 was 0.1 to 1 nM. In addition, the “JAK2 pKi” value on JAK2 is listed as “A (A represents a pKi value ≥10 (Ki≤0.1 nM))”. Also, the IC50 in assay [1] was 100 to 316 nM.
`CCc1cc(O)ccc1-c1ccc2c(-c3nc(C4=CCCN(CC(=O)NC)C4)c[nH]3)n[nH]c2c1` [Example 88]: at JAK1, the Ki is 0.1 to 1 nM. In addition, the “JAK2 pKi” value on JAK2 is “A (A represents a pKi value ≥10 (Ki≤0.1 nM))”. Besides, in assay [1], the IC50 is 10 to 31.6 nM.
As for `CCc1cc(O)ccc1-c1ccc2c(-c3nc(C4=CCN(CCNC(C)=O)CC4)c[nH]3)n[nH]c2c1` [Example 100], the “JAK1 pKi” value at JAK1 was “A (A represents a pKi value ≥10 (Ki≤0.1 nM))”. The “JAK2 pKi” value at JAK2 is “A (A represents a pKi value ≥10 (Ki≤0.1 nM))”. The IC50 in assay [1] was 3.16 to 10 nM.
For the molecule `CCc1cc(O)ccc1-c1ccc2c(-c3nc(C4=C[C@H](CO)NC4)c[nH]3)n[nH]c2c1` [Example 239], the Ki at JAK1 and on JAK2 was 0.1 to 1 nM throughout. Moreover, the IC50 in assay [1] is 31.6 to 100 nM.
In the case of `CCc1cc(O)ccc1-c1ccc2c(-c3nc(C4=CCN(C(=O)c5ccccc5)CC4)c[nH]3)n[nH]c2c1` [Example 151], the Ki at JAK1 and at JAK2 was 1 to 10 nM each time. In assay [1], the IC50 is 31.6 to 100 nM.
`CCc1cc(O)ccc1-c1ccc2c(-c3nc(C4=C(C(=O)OC(C)C)CNCC4)c[nH]3)n[nH]c2c1F` [Example 325]: the Ki at JAK1 and at JAK2 was 0.1 to 1 nM each time. Besides, in assay [1], the IC50 was 10 to 31.6 nM.
As for `CCc1cc(O)ccc1-c1ccc2c(-c3nc(C4=CCN(S(C)(=O)=O)CC4)c[nH]3)n[nH]c2c1` [Example 148], the Ki at JAK1 and at JAK2 was 0.1 to 1 nM each time. For the same molecule, the IC50 in assay [1] was 10 to 31.6 nM.
`CCc1cc(O)ccc1-c1ccc2c(-c3nc(C4=CCN(Cc5ccccc5)C4)c[nH]3)n[nH]c2c1` [Example 140]: the Ki on JAK1 and on JAK2 was 0.1 to 1 nM in each case. In addition, in assay [1], the IC50 is 31.6 to 100 nM.
As to `CCc1cc(O)ccc1-c1ccc2c(-c3nc(C4=CCCN(C[C@H](C)CO)C4)c[nH]3)n[nH]c2c1F` [Example 48], the Ki at JAK1 and at JAK2 was 0.1 to 1 nM throughout. In assay [1], the IC50 was 10 to 31.6 nM.
`CCc1cc(O)ccc1-c1ccc2c(-c3nc(C4=CC5CNCCN5CC4)c[nH]3)n[nH]c2c1F` (stereo not drawn) [Example 358]: the Ki on JAK1 and on JAK2 was 0.1 to 1 nM in each case. For the same molecule, the IC50 in assay [1] is 31.6 to 100 nM.
`CCc1cc(O)ccc1-c1ccc2c(-c3nc(C4=CCN(CC(=O)NC)C4)c[nH]3)n[nH]c2c1F` [Example 97]: the Ki on JAK1 was 0.1 to 1 nM. The “JAK2 pKi” value on JAK2 was “A (A represents a pKi value ≥10 (Ki≤0.1 nM))”. The IC50 in assay [1] is 3.16 to 10 nM.
Take `CCc1cc(O)ccc1-c1ccc2c(-c3nc(C4=CC[C@H](C)N(C[C@@H](C)CO)C4)c[nH]3)n[nH]c2c1F` [Example 262]: the Ki on JAK1 and at JAK2 was 0.1 to 1 nM in each case. Also, the IC50 in assay [1] is 10 to 31.6 nM.
As for `CCc1cc(O)ccc1-c1ccc2c(-c3nc(C4=CC[C@H](C)N(CCNS(C)(=O)=O)C4)c[nH]3)n[nH]c2c1F` [Example 278], the Ki on JAK1 and at JAK2 was 0.1 to 1 nM throughout. In addition, the IC50 in assay [1] was 10 to 31.6 nM.
`CCc1cc(O)ccc1-c1ccc2c(-c3nc(C4=CC[C@H](C)N(CC5COC5)C4)c[nH]3)n[nH]c2c1F` [Example 267]: the Ki at JAK1 and on JAK2 was 0.1 to 1 nM throughout. Moreover, the IC50 in assay [1] was 10 to 31.6 nM.
Consider `CCc1cc(O)ccc1-c1ccc2c(-c3nc(C4=CCN(CC)C4)c[nH]3)n[nH]c2c1F` [Example 283], for which the “JAK1 pKi” value at JAK1 is “A (A represents a pKi value ≥10 (Ki≤0.1 nM))”. Moreover, on JAK2, the “JAK2 pKi” value is “A (A represents a pKi value ≥10 (Ki≤0.1 nM))”. In assay [1], the IC50 is 3.16 to 10 nM.
In the case of `CCc1cc(O)ccc1-c1ccc2c(-c3nc(C4=CCN(Cc5cn[nH]c5)C4)c[nH]3)n[nH]c2c1F` [Example 145], the “JAK1 pKi” value at JAK1 is given as “A (A represents a pKi value ≥10 (Ki≤0.1 nM))”. For the same molecule, the “JAK2 pKi” value on JAK2 is “A (A represents a pKi value ≥10 (Ki≤0.1 nM))”. The IC50 in assay [1] was 10 to 31.6 nM.
